From PMC12138593, “Synthesis, Crystal Design and Anticancer Potential of Novel Cu(II), Ni(II), and Pd(II) Complexes with Carbazate Ligand” (ACS Omega, 2025)

How the values were obtained:
A2780cis = assay: MTT cytotoxicity assay, A2780cis cisplatin-resistant ovarian cancer cells; format: cell-based, human; details: 48 h, IC50 ± SD
Method: (§1) Human cell lines A549 (lung cancer, ATCC No. CCL-185), MRC-5 (nontumoral lung, ATCC No. CCL-171), MCF-7 (breast cancer, ATCC No. HTB-22), and A2780cis (cisplatin-resistant ovarian cancer, ECACC No. 93112517) were used to evaluate the cytotoxic activity of the metal complexes. The A549 and MRC-5 cell lines were cultured in DMEM (Dulbecco’s Modified Eagle’s Medium), while the MCF-7 and A2780cis cell lines were maintained in RPMI-1640 (Roswell Park Memorial Institute) medium. Both media were supplemented with 10% fetal bovine serum (FBS), penicillin (100 U/mL), streptomycin ([…]), and L-glutamine (2 mM). The cells were grown in monolayers using disposable 25 cm^2 flasks and incubated at 37 °C in a 5% CO2 atmosphere.
(§2) The cytotoxicity of the compounds was determined using the MTT colorimetric assay (3-(4,5-dimethylthiazol-2-yl)-2,5-diphenyl tetrazolium bromide), as described by Mosmann. The cells were trypsinized for counting and concentration adjustment and then seeded in 96-well plates (1.5 × 10^4 cells/well). The plates were incubated at 37 °C in a 5% CO2 atmosphere for 24 h to allow cell adhesion. […] Absorbance was measured at 570 nm using a Varioskan LUX Multimode Microplate Reader (VL000D0). […]

MRC-5 = assay: MTT cytotoxicity assay, MRC-5 noncancerous lung cells; format: cell-based, human; details: IC50 ± SD
Method: as §1, §2

MCF-7 = assay: MTT cytotoxicity assay, MCF-7 breast cancer cells; format: cell-based, human; details: IC50 ± SD
Method: as §1, §2

A549 = assay: MTT cytotoxicity assay, A549 lung cancer cells; format: cell-based, human; details: IC50 ± SD
Method: as §1, §2

[1] = Molar conductance in DMSO over 48 h; format: physicochemical; details: 10^-3 M in DMSO, room temperature
Method: DMSO solutions (10^–3 M) of the Hapmc and metal(II) complexes were subjected to molar conductance measurements at room temperature over 48 h, and the observed values are presented in Table S2.
The solvents and reagents were purchased from commercial sources and used without purification. The FT-IR spectra of the compounds were obtained from KBr pellets, using an FT-IR Varian 640 spectrometer in the range of 4000–400 cm^–1. Electrospray ionization mass spectrometry analysis (ESI-MS) was performed on an AB Sciex Triple TOF 5600+ mass spectrometer in positive mode, with a voltage of 5500 V and source temperature of 200 °C. ^1H nuclear magnetic resonance spectra were collected on a Varian Mercury Plus (600 MHz), with TMS as internal reference and DMSO-d 6 as solvent. Elemental analysis of CHN was performed with a PerkinElmer/Series II 2400 analyzer. Electronic spectra were obtained using a UV–vis–NIR Varian Cary 5000 spectrophotometer using 20 μM or 1 mM solutions prepared in methanol or DMF. The molar conductance of a 10^–3 M solution of ligand and metal complexes in DMSO was measured at room temperature using a Quimis Q405 M conduct meter.

Row | Molar conductivity, 0 hours ([1]; 0 hours) | Molar conductivity, 24 hours ([1]; 24 hours) | Molar conductivity, 48 hours ([1]; 48 hours) | Structure (SMILES) | IC50 (A2780cis) [µM] | IC50 (MRC-5; 48 h) [µM] | IC50 (MCF-7; 48 h) [µM] | IC50 (A549; 48 h) [µM] | IC50 (A2780cis; Homo sapiens, A2780cis) [µM] | IC50 (MRC-5; Homo sapiens, MRC5, 48 h) [µM] | IC50 (MCF-7; Homo sapiens, MCF7, 48 h) [µM] | IC50 (A549; Homo sapiens, A549, 48 h) [µM]
1 | – | – | – | N.N.[Cl][Pt][Cl] [Cisplatin, reference compound] | 37 | 29.1 | 14 | 11.5 | – | – | – | –
2 | 1.90 Ω -1.cm2.mol-1 | 2.37 Ω -1.cm2.mol-1 | 2.48 Ω -1.cm2.mol-1 | COC(=O)N/N=C(\C)c1ccccn1 [Hapmc, 2-acetylpyridine-methylcarbazate] | – | – | – | – | > 100 | > 100 | > 100 | > 100
